Reference: the pKa sets of Baltruschat and Czodrowski (2020)

Structure (SMILES)	pKa
O=c1[nH]c(=O)n([C@H]2C[C@H](O)[C@@H](CO)O2)cc1I	8.2
c1ccc(CN2CCN(CCCc3c[nH]c4ccc(-n5cnnc5)cc34)CC2)cc1	8.2
CNC(=O)Nc1ccc(Nc2c3ccccc3nc3ccccc23)cc1	7.77
CN1C[C@H](C(=O)N[C@]2(C)O[C@@]3(O)[C@@H]4CCCN4C(=O)[C@H](Cc4ccccc4)N3C2=O)C=C2c3cccc4[nH]cc(c34)C[C@H]21	6.3
CS(=O)(=O)Nc1ccc(Nc2c3ccccc3nc3ccccc23)cc1Cl	6.44
CN1CCC[C@H]1c1cccnc1	8.1
Cc1cccc(Nc2c3ccccc3nc3ccccc23)c1	7.52
O=C(c1ccc(CN2CCOCC2)cc1)N1CCN(C2CCC2)CC1	6.5
CC(C)(C)NCC(O)c1cc(O)cc(O)c1 (stereo not drawn)	8.7
CS(=O)(=O)c1ccc(Nc2c3ccccc3nc3ccccc23)cc1	5.81
C/C(=N\N=C(/S)N/N=C(\S)Nc1cccc(Cl)c1Cl)c1ccccn1	7.09
CN(C)CCCN1c2ccccc2CCc2ccc(Cl)cc21	9.38
O=S1NC(CCc2ccccc2)=NO1 (stereo not drawn)	5.23
O=C(O)CCc1ccc(Nc2c3ccccc3nc3ccccc23)cc1	7.91
CCC12CC3CC(CC(N)(C3)C1)C2	10.6
CCCCNCc1ccc(C(=O)c2csc(S(N)(=O)=O)c2)cc1.Cl	8.12
COc1cc(NS(C)(=O)=O)ccc1Nc1c2ccccc2nc2c(Cl)cccc12	6.11
CN(C)C(=O)Oc1cccc([N+](C)(C)C)c1	19.1
Cc1cc(Cl)ccc1N=C1NCCN1	9.99
C[C@H](O)c1nccc(N2C[C@@H](C)N(c3ccnc([C@@H](C)O)n3)[C@@H](C)C2)n1	6
Oc1ccccc1Nc1c2ccccc2nc2ccccc12	7.8
CC(C)(C)NCC(O)COc1cccc2c1C[C@H](O)[C@H](O)C2 (stereo partly drawn)	9.67
CCNc1ccc(Nc2c3ccccc3nc3ccccc23)cc1	8.3
COc1cc(NS(C)(=O)=O)ccc1Nc1c2ccccc2nc2c(C#N)cccc12	4.87
CN(C)CCC=C1c2ccccc2CCc2ccccc21	9.4

Structure (SMILES)	pKa
O=S(=O)(c1cccc(F)c1)c1ccc2c3c(oc2c1)C1(CCCOC1)NCC3 (stereo not drawn)	7.5
CN(C)C(=O)C1C2c3ccccc3C(c3ccccc32)C1C(=O)N(C)C (stereo not drawn)	-1.34
COc1cc(NS(C)(=O)=O)ccc1Nc1c2ccccc2nc2c(F)cccc12	6.33
Cc1c(-c2noc(-c3ccc(OC(C)C)c(C#N)c3)n2)cnc2c1CCN(C(CO)CO)C2	6.2
C/C(=N\N=C(/S)N/N=C(\S)Nc1ccccc1Cl)c1ccccn1	7.24
Clc1cccc(Nc2c3ccccc3nc3ccccc23)c1	6.76
CC(C)(C)NCc1ccc(S(=O)(=O)c2csc(S(N)(=O)=O)c2)cc1.Cl	8.08
COc1cccc2c(Nc3ccc(NS(C)(=O)=O)cc3)c3ccccc3nc12	7.15
CCCCCCOC(=O)c1ccc(OS(N)(=O)=O)cc1	8.52
COC(=O)Nc1ccc2c(Nc3ccc(NS(C)(=O)=O)cc3)c3ccccc3nc2c1	7.48
CCN(CC)CCCC(C)Nc1c2ccc(Cl)cc2nc2ccc(OC)cc12 (stereo not drawn)	10.2
Fc1ccc(Nc2c3ccccc3nc3ccccc23)cc1	7.5
c1nc[nH]n1	2.19
Cc1cc(OCCN2CCOCC2)nn1-c1ccc2ccccc2c1	6.5
Cl.Fc1ccc2c(c1)N(CCCN1CCOCC1)c1cc(F)ccc1CC2	7.6
CN(C)c1ccc(Nc2c3ccccc3nc3ccccc23)cc1	8.46
COc1cc(NS(C)(=O)=O)ccc1Nc1c2ccccc2nc2c(-c3ccccc3)cccc12	7.02
c1ccc(NC2=NCCN2)cc1	10.1
c1cnon1	-5
CC12CC3(C)CC(C)(C1)CC(N)(C2)C3	10.6
Cc1ccc(C(=O)N(CCCN)[C@@H](c2oc3cc(Cl)ccc3c(=O)c2Cc2ccccc2)C(C)C)cc1	8.5
Cc1c2ccccc2nc2c(C(O)=NCCN(C)C)cccc12	4.34
Oc1cc(C2CCNCC2)sn1	10.7
Cc1ncc2n1-c1ccc(Cl)cc1C(c1ccccc1F)=NC2	5.44
Cc1cnc(NCCc2ccccc2)c(=O)n1CC(=O)NCc1ccc(C(=N)N)s1	10.3

Structure (SMILES)	pKa
CS(=O)(=O)Nc1ccc(Nc2c3ccccc3nc3ncccc23)cc1	5.93
NC1OC(CO)C(O)C(O)C1O (stereo not drawn)	5.6
Cc1cnc(NCCc2ccccc2)c(=O)n1CC(=O)NCc1ccc(C(=N)N)cc1	10.2
CCCCS(=O)(=O)Nc1ccc(Nc2c3ccccc3nc3ccccc23)cc1	7.18
Cc1nc(N)ncc1CNC(=O)Cn1c(C)ccc(NS(=O)(=O)Cc2cccc3c2OCCO3)c1=O	4.2
CNc1ncnc2c1ncn2Cc1ccccc1F	3.88
Cc1nc(C)nc(N2C[C@@H](C)N(c3ccnc([C@@H](C)O)n3)[C@@H](C)C2)n1	4.8
Cl.O=C(c1ccc(CN2CCOCC2)cc1)N1CCN(C2CC2)CC1	5.3
CN(C)CCNC1=Nc2cccc3cccc(c23)N1	6
COc1cc(NS(C)(=O)=O)ccc1Nc1c2ccccc2nc2ccccc12	7.43
CC(=O)Nc1ccc(Nc2c3ccccc3nc3ccccc23)cc1	7.51
CC1=CN(c2ccc(S(N)(=O)=O)cc2)C(C2C=CN(C)C=C2)N1 (stereo not drawn)	7.26
CS(=O)(=O)Nc1ccc(Nc2c3ccccc3nc3ccc(Cl)cc23)cc1	6.42
BP(=O)(OC[C@H]1O[C@@H](n2cnc3c(N)nc(SC)nc32)[C@H](O)[C@@H]1O)OP(=O)(O)C(Cl)(Cl)P(=O)(O)O (stereo partly drawn)	7
CCCCCCCOC(=O)c1ccc(OS(N)(=O)=O)cc1	8.27
Cc1cnc(NCCc2ccccc2)c(=O)n1CC(=O)NCc1cnc(N)nc1	3.9
CNc1ccnc(N2CCc3ccccc3C2)c1	8.9
O=C(NCC1CCCCN1)c1cc(OCC(F)(F)F)ccc1OCC(F)(F)F (stereo not drawn)	9.3
CN1C=CN(C2NC(C(F)(F)F)=CN2c2ccc(S(N)(=O)=O)cc2)C=C1 (stereo not drawn)	7.34
O=C(O)CN(CCN(CC(=O)O)CC(=O)O)CCN(CC(=O)O)C(COCc1ccccc1)C(=O)O (stereo not drawn)	2.07
CC(C)(C)NC[C@H](O)COc1nsnc1N1CCOCC1	8.8
CCC12CCC(=O)C=C1c1c(cc(OCC(=O)OCC(=O)O)c(Cl)c1Cl)C2 (stereo not drawn)	3.8
CS(=O)(=O)Nc1ccc(Nc2c3ccccc3nc3ccncc23)cc1	5.73
CN1CCN(Cc2ccccc2S(=O)(=O)c2csc(S(N)(=O)=O)c2)CC1.Cl	6.4
BP(=O)(OC[C@H]1O[C@@H](n2cnc3c(N)ncnc32)[C@H](O)[C@@H]1O)OP(=O)(O)CP(=O)(O)O (stereo partly drawn)	8.4

Structure (SMILES)	pKa
CN(C)CC1C2c3ccccc3C(c3ccccc32)C1CN(C)C (stereo not drawn)	9.19
COc1ccc2c(Nc3ccc(NS(C)(=O)=O)cc3)c3ccccc3nc2c1	7.57
N[C@@H]1C[C@]1(F)c1ccccc1	6.98
NC(=O)C(F)(F)F	17.2
CS(=O)(=O)Nc1ccc(Nc2c3ccccc3nc3ccc([N+](=O)[O-])cc23)cc1	5.42
CN(C)CCN=C(O)c1cccc2cc3ccccc3nc12	3.54
CN1CC(C)(c2cccc(NC(=O)c3ccc(Cl)cn3)c2)N=C(N)C1=O (stereo not drawn)	7.6
CN(C)CC(F)(F)F	4.8
Cc1nc(N)ncc1CNC(=O)Cn1c(C)ccc(NS(=O)(=O)Cc2ccccc2)c1=O	4.2
OCCN1CCN(CCCN2c3ccccc3Sc3ccc(Cl)cc32)CC1	7.8
C[N+](C)(C)Cc1ccc(S)cc1	5.5
N[C@@H](CS)C(=O)O	8.3
CC1=CN(c2ccc(S(N)(=O)=O)cc2)C(N2C=CN(C)C=C2)N1 (stereo not drawn)	7.11
COc1cccc(S(=O)(=O)Nc2cccn(CC(=O)NCc3ccc(C(=N)N)cc3Cl)c2=O)c1	9.4
COC(=O)Nc1ccc(Nc2c3ccccc3nc3ccccc23)cc1	7.64
COc1cc(NS(C)(=O)=O)ccc1Nc1c2ccccc2nc2cc([N+](=O)[O-])ccc12	5.72
CC(=O)N[C@@H](Cc1cc(F)cc(F)c1)[C@H](O)CNC1(c2cc(C(C)(C)C)ncn2)CCCCC1	6.7
Cc1cc(Nc2c3ccccc3nc3ccccc23)ccc1NS(C)(=O)=O	7.08
Brc1cccc(Br)c1N=C1NCCN1	7.8
CN1C=CN(C2NC(C(Cl)(Cl)Cl)=CN2c2ccc(S(N)(=O)=O)cc2)C=C1 (stereo not drawn)	7.68
OB(O)c1ccccc1	8.8
Cl.Fc1ccc2c(c1)N(CCCN1CCCC1)c1cc(F)ccc1CC2	7.6
O=c1ccc(-c2ccc(S(=O)(=O)Nc3cccc4c3CCCC4)s2)n[nH]1	-2.5
COc1cc(NS(C)(=O)=O)ccc1Nc1c2ccccc2nc2c(OCCO)cccc12	7.36
O=C(c1ccccc1)c1ccc2n1CCC2C(=O)O (stereo not drawn)	3.5

Structure (SMILES)	pKa
CCC1(c2ccccc2)C(=O)NC(=O)NC1=O	7.5
O=C(O)CCc1ccccc1	4.64
CNc1ccc([N+](=O)[O-])c2c(NCCCN(C)C)ccnc12	4.22
NCC(F)F	7.3
COc1cc(NS(C)(=O)=O)ccc1Nc1c2ccccc2nc2c(Br)cccc12	6.09
c1nnn[nH]1	-3
Br.Oc1noc2c1CNCC2	4.3
CCOC(=O)c1ccc(OS(N)(=O)=O)cc1	8.22
CC(=O)Nc1ccc2c(Nc3ccc(NS(C)(=O)=O)cc3)c3ccccc3nc2c1	7.34
CCCCN	10.7
COc1cc(NS(C)(=O)=O)ccc1Nc1c2ccccc2nc2cc(NC(C)=O)ccc12	7.56
Cc1ccc(S(=O)(=O)c2nc(N3CCc4ccccc4C3)sc2Cl)cc1	-3.78
Cc1ccccc1N=C1NCCN1	10.2
FC1(Cc2ccccc2)CCN(CCCc2c[nH]c3ccc(-n4cnnc4)cc23)CC1	8.8
COC(=O)C1=C(C)NC(C)=C(C(=O)OCCN(C)Cc2ccccc2)C1c1cccc([N+](=O)[O-])c1 (stereo not drawn)	7.6
CN(C)CCCC(C)(C)c1ccc(C(C)(C)C)cc1	9.8
COc1ccc2c(c1)N(CCN(C)C)CCO2	8.6
COc1cc(NS(C)(=O)=O)ccc1Nc1c2ccccc2nc2c(C(=O)N(C)C)cccc12	6.16
COc1ccc2c(Nc3ccc(NS(C)(=O)=O)cc3OC)c3ccccc3nc2c1	7.81
Cc1cc(=O)oc2cc(O)ccc12	7.8
CN(C)CCCN1c2cc(F)ccc2CCc2ccc(F)cc21.Cl	7.6
CO/N=C(\C#N)C1CN2CCC1CC2 (stereo not drawn)	8.96
CN(C)CCCN1c2ccccc2Sc2ccccc21	9.4
